Reference: ChEMBL document CHEMBL2021772, “Synthesis and antitumor-evaluation of 1,3,4-thiadiazole-containing benzisoselenazolone derivatives” (Bioorg Med Chem Lett, 2012)

Columns and labels:
[1] = tested on: MCF7; test: Antiproliferative activity against human MCF7 cells after 48 hrs by CCK-8 assay; format: functional, cell-based; details: MCF7, 48 h
[2] = tested on: A549; test: Antiproliferative activity against human A549 cells after 48 hrs by CCK-8 assay; format: functional, cell-based; details: A549, 48 h
[3] = Antiproliferative activity against human […] cells after 48 hrs by CCK-8 assay; format: functional, cell-based
[4] = Toxicity in rat; format: organism-based; details: in vivo

## O=c1c2ccccc2[se]n1-c1nnc(-c2ccccc2[N+](=O)[O-])s1
[1]
  IC50: 31.2 µM
[2]
  IC50: 11.4 µM
[3]
  IC50: 22.5 µM

## Cc1cccc(-c2nnc(-n3[se]c4ccccc4c3=O)s2)c1
[1]
  IC50: 19.9 µM
[2]
  IC50: 14.8 µM
[3]
  IC50: 17.8 µM

## COc1ccccc1-c1nnc(-n2[se]c3ccccc3c2=O)s1
[1]
  IC50: 3.92 µM
[2]
  IC50: 3.12 µM
[3]
  IC50: 14.3 µM

## Cc1ccccc1-c1nnc(-n2[se]c3ccccc3c2=O)s1
[1]
  IC50: 36.8 µM
[2]
  IC50: 18.6 µM
[3]
  IC50: 19.4 µM

## Cc1ccc(-c2nnc(-n3[se]c4ccccc4c3=O)s2)cc1
[1]
  IC50: 18.7 µM
[2]
  IC50: 13.4 µM
[3]
  IC50: 16.6 µM

## O=c1c2ccccc2[se]n1-c1nnc(-c2ccc(Cl)cc2)s1
[1]
  IC50: 19.4 µM
[2]
  IC50: 10.4 µM
[3]
  IC50: 24.4 µM

## O=c1c2ccccc2[se]n1-c1nnc(-c2ccccc2)s1
[1]
  IC50: 4.02 µM
[2]
  IC50: 2.48 µM
[3]
  IC50: 20.5 µM

## O=c1c2ccccc2[se]n1-c1ccccc1 [EBSELEN]
[1]
  IC50: 15 µM
[2]
  IC50: 3.75 µM
[3]
  IC50: 18.3 µM
[4]
  LD50: 6180 mg/kg

## O=c1c2ccccc2[se]n1-c1nnc(-c2ccccc2Br)s1
[1]
  IC50: 59.4 µM
[2]
  IC50: 12.7 µM
[3]
  IC50: 27.4 µM

## COc1ccc(-c2nnc(-n3[se]c4ccccc4c3=O)s2)cc1
[1]
  IC50: 10 µM
[2]
  IC50: 5.93 µM
[3]
  IC50: 16.4 µM

## COc1cc(-c2nnc(-n3[se]c4ccccc4c3=O)s2)cc(OC)c1OC
[1]
  IC50: 3.44 µM
[2]
  IC50: 3.24 µM
[3]
  IC50: 7.15 µM

## O=c1c2ccccc2[se]n1-c1nnc(-c2ccccc2Cl)s1
[1]
  IC50: 4.43 µM
[2]
  IC50: 10.1 µM
[3]
  IC50: 40.2 µM

## O=c1c2ccccc2[se]n1-c1nnc(-c2ccc(Br)cc2)s1
[1]
  IC50: 43.3 µM
[2]
  IC50: 39.1 µM
[3]
  IC50: 68.2 µM

## O=c1c2ccccc2[se]n1-c1nnc(-c2cccc([N+](=O)[O-])c2)s1
[1]
  IC50: 29.2 µM
[2]
  IC50: 16.1 µM
[3]
  IC50: 27.3 µM

## O=c1c2ccccc2[se]n1-c1nnc(-c2cc([N+](=O)[O-])cc([N+](=O)[O-])c2)s1
[1]
  IC50: 37.8 µM
[2]
  IC50: 17.9 µM
[3]
  IC50: 21.6 µM

## O=c1c2ccccc2[se]n1-c1nnc(-c2ccc(F)cc2)s1
[1]
  IC50: 61.5 µM
[2]
  IC50: 21.1 µM
[3]
  IC50: 42.9 µM
